Experimental data from article PMC10771525 (Communications Biology, 2024).
One block for each compound: values may come before it. Where a SMILES comes first, the peptide text is derived from it. [ ]: non-standard residue; d: D form.

Assays:
PTGIR = PTGIR (Homo sapiens, UniProt P43119); assay: GPCR panel (control), Arrestin, CHO-K1; format: cell-based; settings: reference agonist
ADORA3 = assay: GPCR panel (control), Arrestin, CHO-K1; format: cell-based, human; settings: reference agonist
P2RY12 = assay: GPCR panel (control), Arrestin, CHO-K1; format: cell-based, human; settings: reference agonist
P2RY11 = assay: GPCR panel (control), Arrestin, CHO-K1; format: cell-based, human; settings: reference agonist
OPRD1 = molecular target: T1, OPRD1 (Homo sapiens, UniProt P41143); assay: GPCR panel (control), Arrestin, CHO-K1; format: cell-based; settings: reference agonist
T1 construct: expressed in transfected cells; host or cells: CHO-K1

TBXA2R = assay: GPCR panel (control), Arrestin, U2OS; format: cell-based, human; settings: reference agonist
GPR119 = assay: GPCR panel (control), Arrestin, U2OS; format: cell-based, human; settings: reference agonist
PTAFR = assay: GPCR panel (control), Arrestin, CHO-K1; format: cell-based, human; settings: reference agonist
CRTH2 = CRTH2 (Homo sapiens, UniProt Q9Y5Y4); assay: GPCR panel (control), Arrestin, U2OS; format: cell-based; settings: reference agonist
EDG6 = assay: GPCR panel (control), Arrestin, CHO-K1; format: cell-based, human; settings: reference agonist
EDG3 = assay: GPCR panel (control), Arrestin, CHO-K1; format: cell-based, human; settings: reference agonist
EDG5 = assay: GPCR panel (control), Arrestin, CHO-K1; format: cell-based, human; settings: reference agonist
EDG8 = assay: GPCR panel (control), Arrestin, CHO-K1; format: cell-based, human; settings: reference agonist
EDG1 = assay: GPCR panel (control), Arrestin, CHO-K1; format: cell-based, human; settings: reference agonist
ADRA2C = settings: reference agonist, CHO-K1, Arrestin
ADRA2A = settings: reference agonist, CHO-K1, Arrestin
P2RY4 = assay: GPCR panel (control), Arrestin, CHO-K1; format: cell-based, human; settings: reference agonist
P2RY2 = assay: GPCR panel (control), Arrestin, U2OS; format: cell-based, human; settings: reference agonist
P2RY6 = assay: GPCR panel (control), Arrestin, CHO-K1; format: cell-based, human; settings: reference agonist
CCR2 = assay: GPCR panel (control), Arrestin, CHO-K1; format: cell-based, human; settings: reference agonist
CCR5 = assay: GPCR panel (control), Arrestin, CHO-K1; format: cell-based, human; settings: reference agonist
CCR1 = assay: GPCR panel (control), Arrestin, CHO; format: cell-based, human; settings: reference agonist

Chain of CRTH2 (Q9Y5Y4 whole entry): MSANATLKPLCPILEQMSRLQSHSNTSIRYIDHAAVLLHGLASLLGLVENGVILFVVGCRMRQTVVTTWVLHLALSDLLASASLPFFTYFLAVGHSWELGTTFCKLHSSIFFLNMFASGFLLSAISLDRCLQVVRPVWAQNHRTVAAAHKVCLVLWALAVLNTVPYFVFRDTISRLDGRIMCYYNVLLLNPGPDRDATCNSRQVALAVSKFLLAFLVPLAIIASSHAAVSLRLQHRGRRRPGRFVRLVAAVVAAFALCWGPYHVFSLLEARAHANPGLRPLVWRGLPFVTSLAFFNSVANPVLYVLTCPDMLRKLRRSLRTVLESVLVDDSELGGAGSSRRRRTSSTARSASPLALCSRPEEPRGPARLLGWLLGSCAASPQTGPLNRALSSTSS
T1 sequence (P41143 whole entry): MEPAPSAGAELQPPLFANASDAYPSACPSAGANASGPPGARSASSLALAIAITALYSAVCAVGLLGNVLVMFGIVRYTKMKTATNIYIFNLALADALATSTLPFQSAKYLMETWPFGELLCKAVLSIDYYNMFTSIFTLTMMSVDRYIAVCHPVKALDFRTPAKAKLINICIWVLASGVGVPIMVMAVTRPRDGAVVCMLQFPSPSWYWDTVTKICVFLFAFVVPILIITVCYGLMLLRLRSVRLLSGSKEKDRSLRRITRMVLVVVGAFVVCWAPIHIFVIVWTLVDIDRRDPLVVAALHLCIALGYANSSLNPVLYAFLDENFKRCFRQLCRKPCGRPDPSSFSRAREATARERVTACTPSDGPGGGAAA
Chain of PTGIR (P43119 1-383): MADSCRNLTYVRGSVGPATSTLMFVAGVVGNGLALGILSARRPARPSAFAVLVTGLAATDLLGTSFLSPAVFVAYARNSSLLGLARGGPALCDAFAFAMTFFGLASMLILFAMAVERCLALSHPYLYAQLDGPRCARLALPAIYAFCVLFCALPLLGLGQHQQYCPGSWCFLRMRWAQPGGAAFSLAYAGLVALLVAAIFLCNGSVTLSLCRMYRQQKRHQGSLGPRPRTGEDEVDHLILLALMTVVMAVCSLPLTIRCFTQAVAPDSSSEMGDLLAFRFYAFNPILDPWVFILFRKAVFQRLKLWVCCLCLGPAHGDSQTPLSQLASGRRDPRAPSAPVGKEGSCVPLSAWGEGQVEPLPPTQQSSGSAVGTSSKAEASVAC

Compound: CC#CCC(C)[C@H](O)/C=C/[C@@H]1[C@H]2c3cccc(CCCC(=O)O)c3O[C@H]2C[C@H]1O (mixture of isomers) [Beraprost]
EC50 (PTGIR): 0.39 µM
EC80 (PTGIR): 18 µM

Compound: CSc1nc(N)c2ncn([C@@H]3O[C@H](COP(=O)(O)OP(=O)(O)O)[C@@H](O)[C@H]3O)c2n1 [2-methylthio-ADP]
EC50 (P2RY12): 0.0026 µM
EC80 (P2RY12): 0.058 µM

Compound: Nc1ncnc2c1ncn2[C@@H]1O[C@H](COP(=O)(O)OP(=O)(O)OP(=O)(O)O)[C@@H](O)[C@H]1O [ATP]
EC50 (P2RY11): 350 µM
EC80 (P2RY11): 13000 µM

Compound: CSCC[C@H](NC(=O)[C@H](CC(C)C)NC(=O)[C@H](Cc1cnc[nH]1)NC(=O)[C@H](Cc1ccccc1)NC(=O)[C@@H](CCSC)NC(=O)[C@@H](N)Cc1ccc(O)cc1)C(=O)N[C@@H](CC(=O)O)C(N)=O [Deltorphin A] (H-Y[dM]FHLMD-NH2)
EC50 (OPRD1): 0.0023 µM
EC80 (OPRD1): 0.054 µM

Compound: CCCCCCCCCCCCCCCCOC[C@H](COP(=O)([O-])OCC[N+](C)(C)C)OC(C)=O [PAF]
EC50 (PTAFR): 0.0063 µM
EC80 (PTAFR): 0.32 µM

Further lines, with some results ahead:

EC50 (TBXA2R): 0.12 µM
Compound: O=C(O)CCC/C=C\C[C@@H]1[C@@H](/C=C/[C@@H](O)COc2ccc(I)cc2)[C@H]2CC[C@@H]1O2 [I-BOP]
EC80 (TBXA2R): 2.4 µM

EC50 (GPR119): 0.58 µM
Compound: CCCCCCCC/C=C\CCCCCCCC(=O)NCCO [OEA]
EC80 (GPR119): 19 µM

EC50 (CRTH2): 0.021 µM
EC80 (CRTH2): 1.2 µM
Compound: CCCCC[C@H](O)/C=C/[C@H]1C(=O)C[C@H](O)[C@@H]1C/C=C\CCCC(=O)O [Prostaglandin D2]

EC50 (EDG6): 0.11 µM
EC50 (EDG3): 0.19 µM
EC50 (EDG5): 0.26 µM
EC50 (EDG8): 0.026 µM
EC50 (EDG1): 0.053 µM
Compound: CCCCCCCCCCCCC/C=C/[C@@H](O)[C@@H](N)COP(=O)(O)O [Sphingosine-1-phosphate]
EC80 (EDG6): 4.8 µM
EC80 (EDG3): 5.2 µM
EC80 (EDG5): 11 µM
EC80 (EDG8): 2.4 µM
EC80 (EDG1): 1.3 µM

EC50 (P2RY4): 0.11 µM
EC50 (P2RY2): 0.42 µM
EC50 (P2RY6): 0.1 µM
Compound: O=c1ccn([C@@H]2O[C@H](COP(=O)(O)OP(=O)(O)OP(=O)(O)O)[C@@H](O)[C@H]2O)c(=O)[nH]1 [UTP]
EC80 (P2RY4): 3.3 µM
EC80 (P2RY2): 12 µM
EC80 (P2RY6): 2.7 µM

EC50 (CCR2): 0.0031 µM
Compound: CCL2
EC80 (CCR2): 0.2 µM

EC50 (CCR5): 0.0072 µM
Compound: CCL3
EC80 (CCR5): 0.31 µM

EC50 (CCR1): 0.0081 µM
Compound: CCL3/MIP1a
EC80 (CCR1): 0.57 µM
